Assays:
[1] = tested on: A549, H1299, H23, and H460; experiment: MTS viability assay, 72 h, lines with high DDX3 expression; format: cell-based; conditions: range over A549, H1299, H23, H460
Method: (§1) Proliferation was determined by counting cancer cells over time. Cells were seeded at 7.5 × 10^4 cells/well and counted daily with a TC10 automated cell counter (Bio-Rad, Hercules, CA, USA) at least three times. Viability of cancer cells was determined by MTS assay (CellTiter 96® AQueous One Solution, Promega, Madison, WI, USA) as described by the manufacturer. Briefly, 800–2,000 cells were allowed to attach overnight in a 96-well plate, treated with different concentrations of RK-33 and kept for 72 h. MTS reagent was kept for 2 h. Each experiment was repeated a minimum of three independent times.

[2] = tested on: lung cancer cell lines (A549, H1299, H460, H23, and H196); experiment: Combination experiments with chemotherapy; format: cell-based
[3] = tested on: A549 cells; experiment: 53BP1 and γH2AX foci after radiation (immunofluorescence); format: cell-based, human; conditions: 6 μM, 12 h before 2-Gy radiation
Method: A549 cells were allowed to attach overnight in chamber slides. For DDR experiments (Fig6A), cells were incubated with RK-33 for 12 h and then radiated with 2 Gy. After 0, 1, 6, and 24 h, cells were fixed and stained. Cells were fixed for 15 min in 4% formalin, washed with PBS, permeabilized (PBS containing 0.2% Triton X-100) for 5 min, and blocked for 30 min with 10% goat serum. […] Next, cells were washed with PBS and incubated with secondary antibodies, CY3 (1:200, goat anti-mouse, 115-165-071, Jackson Immuno Research) or Alexa fluor 488 (1:200, goat anti-rabbit, A11034, Invitrogen) for 1 h. Cells were washed, nuclei-stained with 4′,6-diamidino-2-phenylindole (DAPI), and cover-slipped. Photographs were taken with Nikon Eclipse 80i fluorescence microscope using a CoolSnap ES camera (Roper scientific, Sarasota, FL, USA).

[4] = biological target: T1, DDX5 (Homo sapiens, UniProt P17844); experiment: Biotin bead pull-down assay with biotinylated RK-33, immunoblot; format: binding; conditions: biotinylated RK-33 molecules, 10 μM
T1 construct: Two plates of 70% confluent cells were lysed with IP lysis buffer; endogenous in cells
Method: Mean from 3 replicates with SD. • J, K Colony-forming assay of A549 and H3255 cells treated with RK-33 and with various doses of radiation 4 h later. Curves were fitted with a quadratic polynomial equation. Mean from 2 replicates with SD. P-values were determined by the extra sum of squares F-test. Source data are available online for this figure.
Two plates of 70% confluent cells were lysed with IP lysis buffer (Tris–HCl (pH 7.4) 25 mM, NaCl 150 mM, EDTA 1 mM, NP-40 1%, glycerol 5%, protease inhibitor). […] Streptavidin beads were added and incubated for 1 h at room temperature. The biotin-bead–RK-33 complex was extracted with a magnetic stand and washed seven times with PBS. Proteins were analyzed by immunoblot.

[5] = tested on: H3255; experiment: MTS viability assay, 72 h, line with low DDX3 expression; format: cell-based
Method: as §1

[6] = biological target: Ded1p (yeast homolog of DDX3) (Saccharomyces cerevisiae, UniProt P06634); experiment: RNA helicase (unwinding) assay; format: biochemical; conditions: Ded1p 80 nM, 100 μM ATP; 50, 100, 200 nM tested
Method: The RNA helicase assay was performed as described earlier (Sengoku et al, [2006]) with a few modifications. Briefly, RNA oligomers R41 (unlabeled 41 nt) 5′-[…]-[…]-3′ and R13 (FAM-labeled 13 nt) 5′-[…]-3′ were annealed to form […] RNA duplexes and incubated with R13C (unlabeled 13-nt quencher RNA complementary to R13) 5′-[…]-3′, along with Ded1p protein (80 nM), 100 μM ATP, and […] RNasin (Promega, Madison, WI, USA) in reaction buffer containing 50 mM Tris, pH 7.8, 2 mM MgCl2, 3% glycerol, and 1 mM DTT for various times at room temperature. Reactions were stopped after 30-min incubation at room temperature with stop solution containing proteinase K (1 mg/ml) and SDS (0.6%). Reactions were loaded on acrylamide gels and bands visualized using a Typhoon scanner (GE Healthcare, Piscataway, NJ, USA).

[7] = tested on: A549 human lung cancer cells; experiment: Orthotopic A549 lung cancer model with radiation; format: in vivo, athymic NCr-nu/nu mice; conditions: i.p. RK-33 with radiation, schedule as Fig6C
Method: Athymic NCr-nu/nu female mice 4–5 weeks old were purchased from NCI Frederick. A total of 1 × 10^6 A549 cells were injected in the tail vein of ten mice. Treatment (five animals per group) was started 4 weeks after inoculation of tumor cells. Since tumor volumes could not be determined by micro-CT, tumor burden was established at necropsy by histopathology, 8 weeks after inoculation of tumor cells. All five lung lobes were paraffin-embedded and mid-lung sections were stained with H&E. Slides were digitalized; lung and tumor surface area was calculated with ImageScope (Aperio Technologies, Vista, CA, USA), as tumor burden = tumor surface/lung surface.
Cells were irradiated at room temperature with 0.5 Gy/min to the desired dose using a Gammacell 40 ^137Cs irradiator. For in vivo experiments, mice were treated using the Small Animal Radiation Research Platform (Wong et al, [2008]). The tumors were irradiated with a circular beam of 1 cm diameter.

Sequence of Ded1p (yeast homolog of DDX3) (P06634 whole entry): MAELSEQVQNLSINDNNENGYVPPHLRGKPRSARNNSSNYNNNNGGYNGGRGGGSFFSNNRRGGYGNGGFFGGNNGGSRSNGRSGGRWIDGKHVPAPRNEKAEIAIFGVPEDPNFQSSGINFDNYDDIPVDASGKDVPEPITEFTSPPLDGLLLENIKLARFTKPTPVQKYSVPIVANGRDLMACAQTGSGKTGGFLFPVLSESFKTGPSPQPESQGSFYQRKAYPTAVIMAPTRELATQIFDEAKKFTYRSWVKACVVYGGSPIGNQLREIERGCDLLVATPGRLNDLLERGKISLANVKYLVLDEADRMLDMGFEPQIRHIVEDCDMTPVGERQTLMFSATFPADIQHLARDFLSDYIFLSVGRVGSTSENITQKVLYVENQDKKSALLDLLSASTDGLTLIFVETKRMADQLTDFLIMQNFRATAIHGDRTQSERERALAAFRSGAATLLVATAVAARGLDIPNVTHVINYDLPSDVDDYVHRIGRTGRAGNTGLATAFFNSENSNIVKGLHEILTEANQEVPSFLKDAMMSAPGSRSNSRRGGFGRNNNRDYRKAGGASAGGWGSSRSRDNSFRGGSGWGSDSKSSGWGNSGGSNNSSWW
T1 sequence (P17844 whole entry): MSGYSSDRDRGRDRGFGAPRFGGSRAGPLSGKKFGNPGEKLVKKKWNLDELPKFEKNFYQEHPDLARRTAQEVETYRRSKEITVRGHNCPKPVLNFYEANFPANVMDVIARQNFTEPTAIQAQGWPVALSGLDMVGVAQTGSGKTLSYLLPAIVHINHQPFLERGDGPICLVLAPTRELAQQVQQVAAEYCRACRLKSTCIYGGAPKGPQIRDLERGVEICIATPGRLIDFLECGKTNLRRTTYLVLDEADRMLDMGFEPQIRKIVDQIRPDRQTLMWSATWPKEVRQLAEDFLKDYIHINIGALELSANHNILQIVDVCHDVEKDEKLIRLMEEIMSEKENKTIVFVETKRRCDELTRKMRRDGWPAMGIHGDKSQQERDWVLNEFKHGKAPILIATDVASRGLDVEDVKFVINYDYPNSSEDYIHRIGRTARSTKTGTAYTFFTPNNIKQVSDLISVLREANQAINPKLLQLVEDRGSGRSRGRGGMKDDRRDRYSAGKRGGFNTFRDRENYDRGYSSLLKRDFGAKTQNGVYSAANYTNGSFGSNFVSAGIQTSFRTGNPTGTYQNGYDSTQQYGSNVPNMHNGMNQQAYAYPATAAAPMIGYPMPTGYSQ

diimidazo[4,5-d:4′,5′-f]-[1,3]diazepine [RK-33]
IC50 [1]: 4.4 to 8.4 µM | synergy of RK-33 + cisplatin [2]: did not observe significant synergy | synergy of RK-33 + paclitaxel [2]: did not observe significant synergy | persistence of radiation-induced DNA damage (53BP1 and γ-H2AX foci) [3]: DNA damage persisted well beyond 24 h | binding to DDX5 in pull-down [4]: not to the closely related proteins DDX5 and DDX17 | IC50 [5]: > 25 µM | concentration from which unwinding activity is reduced (dose-dependent) [6]: 50 nM | enhancement of radiation-induced tumor regression (tumor burden) [7]: 2.6 fold

Source: article PMC4492822 (EMBO Molecular Medicine, 2015)
